# Reference: patent US20240058375A1, “CO-FORMULATION OF POLYMYXINS FOR INHALATION” (priority 2021, published 2024)
# How the values were obtained:
# A549 cells [1] = assay: Cell viability of A549 cells, polymyxin B with or without polyaspartic acid, propidium iodide flow cytometry; assay type: cell-based, Human; details: 1.0 mM polymyxin B alone, 24 h
# Experimental: (§1) Human lung epithelial cells (A549 cells) were obtained from the American Type Culture Collection (ATCC® CCL-185™, Manassas, VA, USA), grown and sub-cultured in Dulbecco's modified Eagle's medium (DMEM) supplemented with 10% fetal bovine serum (FBS). A549 cells (1×10^5 cells/mL, 12-well plate) were seeded in supplemented DMEM at 37° C. in a humidified atmosphere containing 5% CO2 until 70% confluency. All experiments were conducted in three replicates. Cells were treated with 1.0 mM polymyxin B in the presence and absence of polyaspartic acid (0.25, 1.0 and 5.0 mM); and cell viability were examined at 24 h with flow cytometry after staining with propidium iodide. The drug concentrations for different formulations were selected based on our previous results on polymyxin toxicity in human lung epithelial cells. ^18 To assess the protective effect of polyglutamic acid, A549 cells (0.5×10^5 cells/mL, 200 μL/well) were seeded on 96-well plates (#353072, Corning, USA) for overnight at 37° C. Cells were treated with 1.0 mM polymyxin B in the presence and absence of polyglutamic acid (2.5, 5.0 and 10.0 μM). Cell viability was determined at 24 h using propidium iodide staining using EVOS® FL Auto Imaging System (Invitrogen; Approximate fluorescence excitation/emission maxima: 535/617 nm). […] Three random fields containing at least 50 cells per treatment condition were analyzed.
# A549 cells [2] = assay: Cell viability of A549 cells, polymyxin B with or without polyglutamic acid, propidium iodide imaging; assay type: cell-based, Human; details: 1.0 mM polymyxin B alone, 24 h
# Experimental: as §1
# A549 cells [3] = assay: Mitochondrial superoxide formation (MitoSOX Red) in A549 cells; assay type: cell-based, Human; details: 1.0 mM polymyxin B alone, 24 h
# Experimental: (§2) The attenuation of mitochondrial superoxide formation and loss of mitochondrial membrane potential caused by polymyxin B were determined. ^18 A549 cells (0.5×10^5 cells/mL) were grown on 8-well chamber slides ([…] polymer coverslip, ibidi, Germany) for overnight at 37° C. Cells were treated with 1.0 mM polymyxin B in the presence and absence of polyaspartic acid (0.25, 1.0 and 5.0 mM). To assess the formation of mitochondrial superoxide and loss of mitochondrial membrane potential MitoSOX Red dye (Invitrogen; excitation and emission wavelengths of 514 and 531 to 622 nm, respectively) and TMRE (Invitrogen; excitation and emission wavelengths of 561 and 568 to 690 nm, respectively) were employed, respectively. Nuclei were stained with Hoechst 33342 (Invitrogen; excitation and emission wavelengths of 405 and 410 to 551 nm, respectively) to allow cell counting. Fluorescence intensity was quantified by confocal laser scanning microscopy (Leica SP8 inverted microscope equipped with a 63× oil immersion objective). The average fluorescence intensity per cell for each treatment was calculated using ImageJ (45, 46). Three random fields containing at least 50 cells per treatment condition were analyzed and the TMRE fluorescence in untreated control cells was set as 100%.
# A549 cells [4] = assay: Mitochondrial membrane potential (TMRE) in A549 cells; assay type: cell-based, Human; details: 1.0 mM polymyxin B alone; untreated control 100%
# Experimental: as §2
# Swiss Albino mice = assay: In vivo pulmonary toxicity, lung histopathology with semiquantitative scoring (SQS)
# Experimental: The animal study was approved by the Monash Animal Ethics Committee, Monash University (Victoria, Australia). All experiments were conducted in accordance with the Australian Code of Practice for the Care and Use of Animals for Scientific Purposes. Swiss Albino mice (female; age, 6 weeks; body weight, 20 to 25 g) were obtained from the Monash Animal Research Platform (Clayton, Victoria, Australia). […] Animals were housed individually in metabolic cages and had free access to food and water. Mice were intratracheally administered 10 mg/kg of polymyxin B, 120 mg/kg of polyaspartic acid and the combinations of polyaspartic acid with polymyxin B three times a day.
# Histopathological examinations of lungs were performed to assess the pulmonary toxicity by polymyxin B. At 24 h following pulmonary administration, mice were humanely killed and lungs were harvested and fixed in formalin immediately. To avoid any potential artificial damage to the lung epithelium, bronchoalveolar lavage and cardiac puncture were not performed. A semiquantitative scoring (SQS) system was employed to quantify the extent of lung damages. ^20 Briefly, we used the following grades for the severity and nature of the histopathological changes in the lungs: grade 0, no changes or mild changes considered insignificant; grade 1, minimal lesions affecting 1 to 25% of the area; grade 2, multifocal lesions affecting 25 to 50% of the area; and grade 3, severe tissue changes affecting >50% of the area. The grades were given the following scores: grade 0, 0.1; grade 1, 1; grade 2, 4; and grade 3, 10. Percentages of damage across different levels of the lungs were given the following scores: <1%, 0; from 1 to <5%, 1; from 5 to <10%, 2; from 10 to <20%, 3; from 20 to <30%, 4; from 30 to <40%, 5; >40%, 6. The overall lung histology score was determined as the product of the grade and percent damage score. An SQS was assigned the following scores: SQS 0, no significant change; SQS+1, mild damage; SQS+2, mild to moderate damage; SQS+3, moderate damage; SQS+4, moderate to severe damage; and SQS+5, severe damage.
# [5] = intratracheal three times a day, 10 mg/kg polymyxin B and/or 120 mg/kg polyaspartic acid, lungs at 24 h
substance,measurement,setting,value
polymyxin B sulfate,Cell viability,A549 cells [1],36.7±5.1%
same,Cell viability,A549 cells [2],51.7±5.2%
same,"MitoSOX fluorescence intensity, higher compared to the control",A549 cells [3],> 200 fold
same,Mitochondrial membrane potential compared to the control,A549 cells [4],49.5±7.2%
same,Histological finding in lung,Swiss Albino mice; [5],no macroscopic lesion but severe tissue injury
same,SQS of lung damage (grade),Swiss Albino mice; [5],+2 to +5
same,Lung area affected by tissue injury,"Swiss Albino mice; intratracheal three times a day, 10 mg/kg polymyxin B or 120 mg/kg polyaspartic acid, lungs at 24 h",25-50%
same,Overall semi-quantitative score (SQS) of lung damage,"Swiss Albino mice; mean±SD, 10 mg/kg polymyxin B alone or co-administered with 120 mg/kg polyaspartic acid",3.0±1.4
